Inhibition and Kp uu data for one compound are collected here from ChEMBL document CHEMBL4043168, “The design and SAR of a novel series of 2-aminopyridine based LRRK2 inhibitors” (Bioorg Med Chem Lett, 2017).

Usually inhibition stands for the drop in the measured response relative to a control, in per cent.

In series [1] the target is T1, Serine/threonine-protein kinase 3 (Homo sapiens) (UniProt Q13188).
T1 sequence (whole entry): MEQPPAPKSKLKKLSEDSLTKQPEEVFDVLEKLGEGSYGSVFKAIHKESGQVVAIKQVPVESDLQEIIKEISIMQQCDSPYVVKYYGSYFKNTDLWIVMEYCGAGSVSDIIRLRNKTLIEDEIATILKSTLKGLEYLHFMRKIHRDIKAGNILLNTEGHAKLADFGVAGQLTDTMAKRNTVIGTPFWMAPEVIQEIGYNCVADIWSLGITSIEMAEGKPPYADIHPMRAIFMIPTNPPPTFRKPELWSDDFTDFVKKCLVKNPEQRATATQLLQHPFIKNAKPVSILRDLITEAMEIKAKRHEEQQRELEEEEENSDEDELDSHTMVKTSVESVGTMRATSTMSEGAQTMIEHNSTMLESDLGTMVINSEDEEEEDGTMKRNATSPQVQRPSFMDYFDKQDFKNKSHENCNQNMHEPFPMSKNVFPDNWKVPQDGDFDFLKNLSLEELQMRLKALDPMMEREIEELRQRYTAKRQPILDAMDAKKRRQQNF
In words: Inhibition of MST2 conserved Lys2 (DIKAGNILLNTEGHAK) in human PBMC at 1 uM.

For series [2], the target named is Serine/threonine-protein kinase B-raf (Homo sapiens) (UniProt P15056). In words: Inhibition of BRAF labeling at conserved Lys2 (DLKSNNIFLHEDLTVK) in human PBMC at 0.1 uM.
Serine/threonine-protein kinase B-raf (Homo sapiens), sequence (P15056 whole entry): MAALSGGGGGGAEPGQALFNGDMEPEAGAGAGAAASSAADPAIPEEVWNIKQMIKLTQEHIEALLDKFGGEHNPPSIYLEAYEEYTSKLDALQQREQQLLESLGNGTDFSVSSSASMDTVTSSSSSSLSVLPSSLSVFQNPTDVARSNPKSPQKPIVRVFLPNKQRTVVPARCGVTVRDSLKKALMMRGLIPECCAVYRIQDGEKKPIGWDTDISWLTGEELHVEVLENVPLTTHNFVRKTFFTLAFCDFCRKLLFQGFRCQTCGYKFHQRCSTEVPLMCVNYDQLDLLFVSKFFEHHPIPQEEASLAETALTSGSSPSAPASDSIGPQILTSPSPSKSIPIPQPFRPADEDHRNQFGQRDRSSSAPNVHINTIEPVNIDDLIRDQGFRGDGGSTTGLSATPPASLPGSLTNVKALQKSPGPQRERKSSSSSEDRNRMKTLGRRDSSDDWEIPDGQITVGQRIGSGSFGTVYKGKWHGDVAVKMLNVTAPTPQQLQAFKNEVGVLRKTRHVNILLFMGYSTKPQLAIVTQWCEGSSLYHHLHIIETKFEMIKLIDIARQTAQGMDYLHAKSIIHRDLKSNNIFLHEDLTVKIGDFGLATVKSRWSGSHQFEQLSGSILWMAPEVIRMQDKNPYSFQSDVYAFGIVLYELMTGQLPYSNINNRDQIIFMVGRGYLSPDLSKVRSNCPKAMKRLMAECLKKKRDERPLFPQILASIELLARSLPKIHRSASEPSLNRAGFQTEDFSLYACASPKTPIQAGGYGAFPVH
Series [3] addresses Tyrosine-protein kinase Fer (Homo sapiens) (UniProt P16591). Description: Inhibition of FER conserved Lys2 (QEDGGVYSSSGLKQIPIK) in human PBMC at 0.1 uM.
The target in series [4] is T1, Serine/threonine-protein kinase 3 (Homo sapiens). Description: Inhibition of MST2 conserved Lys2 (DIKAGNILLNTEGHAK) in human PBMC at 0.1 uM.
The target of series [5] is Dual specificity mitogen-activated protein kinase kinase 7 (Homo sapiens) (UniProt O14733). In words: Inhibition of MAP2K7 conserved Lys2 (DVKPSNILLDER) in human PBMC at 0.1 uM.
Series [6] concerns the target Inhibitor of nuclear factor kappa-B kinase subunit alpha (Homo sapiens) (UniProt O15111). Description: Inhibition of IKKa conserved Lys2 (DLKPENIVLQDVGGK) in human PBMC at 0.1 uM.
Series [7] has as its target Kinase suppressor of Ras 2 (Homo sapiens) (UniProt Q6VAB6). In words: Inhibition of KSR2 activation Loop (SKNVFYDNGK) in human PBMC at 1 uM.
Series [8] deals with Eukaryotic elongation factor 2 kinase (Homo sapiens) (UniProt O00418). Description: Inhibition of eEF2K ATP binding site (YIKYNSNSGFVR) in human PBMC at 1 uM.
Eukaryotic elongation factor 2 kinase (Homo sapiens), sequence (O00418 whole entry): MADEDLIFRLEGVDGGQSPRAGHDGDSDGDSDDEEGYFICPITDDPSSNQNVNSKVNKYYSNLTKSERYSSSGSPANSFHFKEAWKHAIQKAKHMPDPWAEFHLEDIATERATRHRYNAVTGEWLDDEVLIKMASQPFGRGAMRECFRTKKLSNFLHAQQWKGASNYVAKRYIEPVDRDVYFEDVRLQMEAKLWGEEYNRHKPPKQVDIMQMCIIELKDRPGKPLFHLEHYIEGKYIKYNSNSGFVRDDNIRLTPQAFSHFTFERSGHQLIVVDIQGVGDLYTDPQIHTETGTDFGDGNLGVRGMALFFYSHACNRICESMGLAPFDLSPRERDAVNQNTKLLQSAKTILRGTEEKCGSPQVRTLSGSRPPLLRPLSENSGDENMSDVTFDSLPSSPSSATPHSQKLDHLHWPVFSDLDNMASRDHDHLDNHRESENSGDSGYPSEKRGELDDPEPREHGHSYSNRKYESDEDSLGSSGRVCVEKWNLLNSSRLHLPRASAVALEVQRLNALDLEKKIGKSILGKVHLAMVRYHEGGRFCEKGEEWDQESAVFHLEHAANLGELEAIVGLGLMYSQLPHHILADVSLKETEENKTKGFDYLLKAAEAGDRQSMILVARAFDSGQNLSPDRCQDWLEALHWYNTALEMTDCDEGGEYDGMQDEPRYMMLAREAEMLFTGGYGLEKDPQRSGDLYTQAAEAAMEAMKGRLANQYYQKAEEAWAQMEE
The target in series [9] is Serine/threonine-protein kinase Nek6 (Homo sapiens) (UniProt Q9HC98). In words: Inhibition of NEK6 conserved Lys2 (DIKPANVFITATGVVK) in human PBMC at 1 uM.
Serine/threonine-protein kinase Nek6 (Homo sapiens), sequence (Q9HC98 whole entry, the tested form may be a part): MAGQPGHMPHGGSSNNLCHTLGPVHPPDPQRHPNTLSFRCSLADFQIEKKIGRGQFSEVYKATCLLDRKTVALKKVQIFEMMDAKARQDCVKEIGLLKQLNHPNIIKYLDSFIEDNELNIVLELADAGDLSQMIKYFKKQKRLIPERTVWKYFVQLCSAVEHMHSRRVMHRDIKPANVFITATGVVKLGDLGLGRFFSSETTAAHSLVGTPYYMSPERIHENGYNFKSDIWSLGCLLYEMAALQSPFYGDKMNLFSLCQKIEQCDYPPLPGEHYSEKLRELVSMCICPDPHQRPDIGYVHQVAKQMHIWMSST
Series [10] concerns the target Ribosomal protein S6 kinase alpha-4 (Homo sapiens) (UniProt O75676). Description: Inhibition of MSK2 domain1 conserved Lys2 (DIKLENILLDSNGHVVLTDFGLSK) in human PBMC at 1 uM.
Series [11] has as its target Dual specificity mitogen-activated protein kinase kinase 2 (Homo sapiens) (UniProt P36507). In words: Inhibition of MAP2K2 conserved Lys2 (IMHRDVKPSNILVNSR) in human PBMC at 0.1 uM.
Series [12] addresses Ribosomal protein S6 kinase alpha-3 (Homo sapiens) (UniProt P51812). Description: Inhibition of RSK2 domain1 activation Loop (LTDFGLSKESIDHEKK) in human PBMC at 0.1 uM.
Series [13] is described as follows: Ratio of unbound drug level in mouse brain to plasma at 10 mg/kg, po. Type of series: ADME, organism-based. The conditions noted are these: read-out: K(p,uu,brain).
The target of series [14] is Cyclin-dependent kinase 7 (Homo sapiens) (UniProt P50613). In words: Inhibition of CDK7 labeling at conserved Lys2 (DLKPNNLLLDENGVLK) in human PBMC at 1 uM.
Series [15] addresses Tyrosine-protein kinase Fgr (Homo sapiens) (UniProt P09769). In words: Inhibition of FGR conserved Lys1 (LIKDDEYNPCQGSKFPIK) in human PBMC at 1 uM.
In series [16] the target is Serine/threonine-protein kinase WNK1 (Homo sapiens) (UniProt Q9H4A3). Description: Inhibition of Wnk1 activation Loop (IGDLGLATLKR) in human PBMC at 1 uM.
Series [17] has as its target T2, Tyrosine-protein kinase JAK3 (Homo sapiens) (UniProt P52333).
T2 sequence (whole entry): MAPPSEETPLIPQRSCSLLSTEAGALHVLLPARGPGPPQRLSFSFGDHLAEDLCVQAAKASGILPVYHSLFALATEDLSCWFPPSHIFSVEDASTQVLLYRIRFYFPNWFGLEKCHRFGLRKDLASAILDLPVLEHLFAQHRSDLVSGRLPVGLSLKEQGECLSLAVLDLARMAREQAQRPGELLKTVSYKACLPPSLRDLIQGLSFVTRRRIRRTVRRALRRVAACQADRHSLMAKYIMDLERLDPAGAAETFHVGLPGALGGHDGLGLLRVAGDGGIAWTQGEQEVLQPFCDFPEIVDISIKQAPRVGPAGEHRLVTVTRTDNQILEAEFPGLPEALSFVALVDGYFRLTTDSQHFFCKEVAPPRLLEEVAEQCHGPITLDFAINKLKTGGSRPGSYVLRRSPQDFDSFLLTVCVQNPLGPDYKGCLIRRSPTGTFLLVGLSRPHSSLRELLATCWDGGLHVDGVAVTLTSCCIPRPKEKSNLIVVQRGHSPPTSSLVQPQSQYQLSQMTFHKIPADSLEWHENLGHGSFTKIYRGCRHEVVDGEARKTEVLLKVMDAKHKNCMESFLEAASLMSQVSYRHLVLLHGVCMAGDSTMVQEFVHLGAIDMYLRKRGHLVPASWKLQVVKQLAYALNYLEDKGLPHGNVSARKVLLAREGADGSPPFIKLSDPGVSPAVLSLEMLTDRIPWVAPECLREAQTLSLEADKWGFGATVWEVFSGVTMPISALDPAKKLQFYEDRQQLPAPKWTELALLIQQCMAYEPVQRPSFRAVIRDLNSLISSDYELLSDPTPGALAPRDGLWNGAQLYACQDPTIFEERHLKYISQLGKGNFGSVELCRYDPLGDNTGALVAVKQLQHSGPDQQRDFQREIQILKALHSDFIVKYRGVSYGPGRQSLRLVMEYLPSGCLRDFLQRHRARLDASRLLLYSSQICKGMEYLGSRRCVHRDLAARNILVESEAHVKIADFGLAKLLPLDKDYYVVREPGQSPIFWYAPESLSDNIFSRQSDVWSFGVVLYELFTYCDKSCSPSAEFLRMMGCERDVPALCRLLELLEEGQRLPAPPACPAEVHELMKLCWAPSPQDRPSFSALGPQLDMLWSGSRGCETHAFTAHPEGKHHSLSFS
In words: Inhibition of JAK3 domain2 conserved Lys1 (YDPLGDNTGALVAVKQLQHSGPDQQR) in human PBMC at 1 uM.

Each structure is given as a SMILES string.

Ribosomal protein S6 kinase alpha-4 (Homo sapiens), sequence (O75676 whole entry, looked up, the tested form may be a part): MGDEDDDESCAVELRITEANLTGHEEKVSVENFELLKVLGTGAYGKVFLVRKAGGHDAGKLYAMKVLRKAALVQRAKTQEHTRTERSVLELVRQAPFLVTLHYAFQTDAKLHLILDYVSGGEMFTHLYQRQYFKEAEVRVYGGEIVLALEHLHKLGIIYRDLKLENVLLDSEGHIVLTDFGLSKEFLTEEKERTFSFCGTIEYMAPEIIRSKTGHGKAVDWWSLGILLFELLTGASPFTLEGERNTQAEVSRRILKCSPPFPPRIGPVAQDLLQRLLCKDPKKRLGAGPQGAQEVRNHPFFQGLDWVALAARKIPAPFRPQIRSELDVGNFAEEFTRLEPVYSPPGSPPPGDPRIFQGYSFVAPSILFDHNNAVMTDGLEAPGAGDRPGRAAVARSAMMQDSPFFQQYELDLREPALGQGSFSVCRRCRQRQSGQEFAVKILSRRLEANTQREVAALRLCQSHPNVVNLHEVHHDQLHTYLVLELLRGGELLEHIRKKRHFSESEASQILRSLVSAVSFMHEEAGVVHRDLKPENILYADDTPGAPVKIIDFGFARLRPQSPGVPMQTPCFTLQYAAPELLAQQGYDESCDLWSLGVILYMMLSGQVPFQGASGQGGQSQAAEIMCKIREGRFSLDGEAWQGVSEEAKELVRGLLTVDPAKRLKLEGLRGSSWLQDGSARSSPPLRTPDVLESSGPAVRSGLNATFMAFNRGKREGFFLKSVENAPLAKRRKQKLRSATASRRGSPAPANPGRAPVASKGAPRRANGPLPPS
Kinase suppressor of Ras 2 (Homo sapiens), sequence (Q6VAB6 whole entry): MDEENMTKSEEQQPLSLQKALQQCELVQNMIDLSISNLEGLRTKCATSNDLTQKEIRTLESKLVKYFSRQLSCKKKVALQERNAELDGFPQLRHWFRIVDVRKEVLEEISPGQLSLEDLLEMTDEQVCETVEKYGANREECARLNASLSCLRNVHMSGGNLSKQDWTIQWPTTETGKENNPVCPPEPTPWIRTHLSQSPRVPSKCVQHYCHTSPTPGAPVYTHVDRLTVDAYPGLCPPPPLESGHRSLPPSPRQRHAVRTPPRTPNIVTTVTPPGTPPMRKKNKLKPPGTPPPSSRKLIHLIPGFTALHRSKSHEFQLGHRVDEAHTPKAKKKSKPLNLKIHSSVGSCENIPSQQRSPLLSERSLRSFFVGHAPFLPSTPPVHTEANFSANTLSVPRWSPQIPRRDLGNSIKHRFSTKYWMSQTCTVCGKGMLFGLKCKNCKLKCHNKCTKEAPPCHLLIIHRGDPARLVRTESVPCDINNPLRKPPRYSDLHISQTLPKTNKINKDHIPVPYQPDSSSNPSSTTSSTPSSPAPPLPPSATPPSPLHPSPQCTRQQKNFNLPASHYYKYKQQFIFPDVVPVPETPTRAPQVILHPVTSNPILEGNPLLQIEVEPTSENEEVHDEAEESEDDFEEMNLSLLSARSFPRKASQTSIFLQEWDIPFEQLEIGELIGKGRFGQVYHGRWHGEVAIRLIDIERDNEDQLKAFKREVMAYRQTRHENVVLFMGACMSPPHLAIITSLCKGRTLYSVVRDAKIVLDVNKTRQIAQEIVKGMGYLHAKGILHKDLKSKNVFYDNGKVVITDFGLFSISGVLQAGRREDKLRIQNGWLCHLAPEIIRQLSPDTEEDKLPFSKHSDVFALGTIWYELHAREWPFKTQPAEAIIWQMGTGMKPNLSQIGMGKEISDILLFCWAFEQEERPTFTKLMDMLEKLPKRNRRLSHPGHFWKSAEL
Tyrosine-protein kinase Fer (Homo sapiens), sequence (P16591 whole entry, looked up): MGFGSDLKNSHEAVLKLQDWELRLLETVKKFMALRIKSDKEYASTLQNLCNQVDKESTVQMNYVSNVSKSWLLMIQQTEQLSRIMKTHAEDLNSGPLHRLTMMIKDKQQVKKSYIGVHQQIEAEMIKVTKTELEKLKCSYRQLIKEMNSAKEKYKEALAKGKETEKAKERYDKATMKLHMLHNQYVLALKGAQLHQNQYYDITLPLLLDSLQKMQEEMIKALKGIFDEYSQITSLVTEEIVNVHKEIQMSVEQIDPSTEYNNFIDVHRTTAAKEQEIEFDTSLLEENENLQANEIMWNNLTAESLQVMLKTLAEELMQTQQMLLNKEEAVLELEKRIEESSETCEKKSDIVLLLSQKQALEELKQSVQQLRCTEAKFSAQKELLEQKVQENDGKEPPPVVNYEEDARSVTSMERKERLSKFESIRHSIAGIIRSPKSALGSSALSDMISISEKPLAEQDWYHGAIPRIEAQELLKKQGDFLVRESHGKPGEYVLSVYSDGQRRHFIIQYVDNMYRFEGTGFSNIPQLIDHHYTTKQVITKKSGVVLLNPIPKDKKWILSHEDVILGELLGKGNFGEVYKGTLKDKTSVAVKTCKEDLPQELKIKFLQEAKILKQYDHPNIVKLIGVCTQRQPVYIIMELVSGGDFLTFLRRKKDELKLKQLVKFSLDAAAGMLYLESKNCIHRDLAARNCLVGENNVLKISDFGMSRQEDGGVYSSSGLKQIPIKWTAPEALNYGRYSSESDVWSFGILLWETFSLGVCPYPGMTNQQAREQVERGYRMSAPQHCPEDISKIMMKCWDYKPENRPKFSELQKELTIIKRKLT
Dual specificity mitogen-activated protein kinase kinase 2 (Homo sapiens), sequence (P36507 whole entry, the tested form may be a part): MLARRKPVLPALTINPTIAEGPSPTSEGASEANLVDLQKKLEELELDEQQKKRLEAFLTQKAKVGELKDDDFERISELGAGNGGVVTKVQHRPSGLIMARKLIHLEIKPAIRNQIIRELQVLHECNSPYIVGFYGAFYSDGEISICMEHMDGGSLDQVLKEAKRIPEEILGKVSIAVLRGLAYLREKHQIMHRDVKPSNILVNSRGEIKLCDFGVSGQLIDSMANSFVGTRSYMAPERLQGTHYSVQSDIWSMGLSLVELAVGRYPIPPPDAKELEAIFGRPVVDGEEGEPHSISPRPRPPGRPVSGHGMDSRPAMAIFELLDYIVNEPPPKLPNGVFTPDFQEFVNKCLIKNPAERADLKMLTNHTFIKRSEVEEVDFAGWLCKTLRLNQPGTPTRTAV

`CC(C)n1cc(-c2cc(-c3ccc(CN4CCOCC4)cc3)cnc2N)nn1`: the inhibition in [1] was 0%; in series [2], 12.5%; in series [3], 8.5%; in [4], 1.3%; in series [5], 31.6%; in series [6], -7.4%. Also, the inhibition in series [7] was 20.1%; in series [8] it was -6.7%; in [9], -9.6%; in series [10], 10.3%; in series [11], -5.6%; in series [12], 7.7%. Further, the inhibition is -5.5% in [14], -8.4% in series [15], 21.9% in series [16] and -0.9% in [17]. Besides, the Kp uu in series [13] came to 0.76.
